Data on ten compounds can be found in patent US10730843B1, “Quinoxalines useful as cytoprotective agents” (priority 2019, dated 2020).

One experiment deals with Human SH-SY5Y cells. Put plainly: Cell rescue assay: protection against ß-amyloid-induced cell toxicity. It counts as cell-based. The conditions noted are these: 96 h, 7.5 uM compound, AB1-42 at 10 uM, 4 days, % cell rescue, read-out: Cell Survival %. How it is done:
Protection against ß-amyloid-induced cell toxicity. Chonpathompikunlert et al. Eu. J. Pharmacol. 2011, 650, 544-549. Human SH-SY5Y cells are suspended in media containing 2% FBS and 2× Gentamicin. Transfer 100 ul/well culture to 96-well plate (20,000 cells/well; passage #5) and incubate overnight. Prepare compound samples at 30 uM. Add 50 ul of the samples to the cells [[…]] and incubate 3 hours. Make stock of 40 uM AB1-42 peptide in assay media. Transfer 50 ul/well to cells/compounds in assay plate. The final assay volume is 200 ul/well, containing 2% FBS, 2× Gentamicin, 7.5 uM compound and AB1-42 at 10 uM. Incubate for 4 days then add 20 ul of Promega Substrate Cell Titer 96 Aqueous One Solution Reagent to each well. Incubate 37° C. and read OD at 490 nm. The results are summarized in Table 3, where A represents a value equal to or greater than 50% cell rescue, B represents a value greater than 20% and less than 50% cell rescue, and C represents a value greater than 10% and less than or equal to 20% cell rescue.

The target of a further experiment is T1, SERCA (Homo sapiens, UniProt P16615).
T1 construct: microsomal preparations from HEK 293 cells; endogenous in cells; host or cells: HEK 293 cells (microsomal preparation)
The experiment can be described thus: Ca-ATPase assay (NADH-linked, enzyme-coupled ATPase assay). It counts as biochemical. The conditions noted are these: microsomal preparations from HEK 293 cells; Vmax from fit of ATPase calcium-dependence to the Hill function, relative to controls. How it is done:
A Ca-ATPase assay was performed using microsomal preparations from HEK 293 cells at a series of calcium concentrations corresponding to the physiological range, relative to controls. The ATP hydrolysis rate was measured over a range of calcium concentrations in the presence of test compounds using an NADH-linked, enzyme-coupled ATPase assay adapted for 96-well microplates, with Vmax determined by fitting the ATPase calcium-dependence to the Hill function. Each well contained 2 μg or 7 μg of SR vesicles (optimized for skeletal or cardiac SR, respectively), 50 mM MOPS (pH 7.0), 100 mM KCl, 5 mM MgCl2, 1 mM EGTA, 0.2 mM NADH, 1 mM phosphoenol pyruvate, 5 IU pyruvate kinase, 5 IU lactate dehydrogenase, and 3.5 μg/mL A23187 (a calcium ionophore). CaCl2 was added to set free [Ca^2+] to the specific values. The assay was started upon addition of ATP at a final concentration of 5 mM, and read in a SpectraMax Plus microplate spectrophotometer. The results are summarized in Table 4, where A represents an increase in SERCA Vmax greater than or equal to 50% and B represents a value greater than 10% and less than 50%.

The next experiment has as its system CSM14.1 neuronal cells. Put plainly: Cell survival assay (thapsigargin-induced cell death, CELLTITER-GLO). It counts as cell-based. The conditions noted are these: compound 2 hrs before about 15 μM thapsigargin, overnight (about 16 to 24 hrs), luminescence. The method, then:
CSM14.1 neuronal cells were maintained in Complete Medium at 32° C.; wherein the Complete Medium contained Dulbecco's modified eagle medium (DMEM) with 10% fetal bovine serum (FSB), 1% L-glutamine, 100 IU/mL penicillin, and 100 μg/mL streptomycin. The cells were recovered from cultures by trypsinization and then seeded in 384 well plates (Greiner #781098) at a concentration of 1,000 cells/well in 20 μL of DMEM Assay Medium, wherein the DMEM Assay Medium contained 2% FBS, 100 IU/mL penicillin, and 100 μg/mL streptomycin. Seeding was performed using a MultiDrop Combi reagent broadcaster. The plates were incubated overnight at 32° C. A test compound was prepared by 2-fold serial dilution in 100% DMSO using a BIOMEK® 2000 liquid handler (Beckman Coulter). A dose-response curve containing 10 concentrations of the test compound was obtained. Using a BIOMEK® FX liquid handler (Beckman Coulter), 2.5 μL of the test compound was transferred from the 100% DMSO serial dilution plate to an intermediate plate containing 47.5 μL of DMEM Assay Medium containing 2% FBS, 100 IU/mL penicillin, and 100 μg/mL streptomycin and mixed. To reduce or eliminate the interference from the compound's precipitation, 6 μL of the diluted compound was immediately transferred to the assay plate to achieve a high compound concentration of 100 μM in 99% DMEM Assay Medium and 1% DMSO. After the assay plates were incubated for 2 hrs, 4 μL of 112.5 μM thapsigargin (TG) (DMSO stock diluted into Assay TC Medium) was dispensed into each testing well with a MultiDrop Combi reagent broadcaster for a final concentration of about 15 μM TG. The tissue culture media (4 μL) containing vehicle only was transferred manually to each control cell using a 16 channel electronic pipette. After the plates were incubated overnight (about 16 to 24 hrs), CELLTITER-GLO® (Promega) (16 μL) was added to all wells and luminescence was measured. High luminescence indicates cell survival. The biological results are summarized in Table 1 where A represents a cell viability EC50 less than or equal to 1 μM, B represents a value greater than 1 μM and less than 10 μM, and C represents a value equal to or greather than 10 μM and less than 20 μM.
Background: ATP-based viability assays read luminescence as a measure of living cells.

Experiment [1] concerns Human embryonic kidney (HEK293) cells; mouse neuroblastoma (N2a) cells. Put plainly: Cell rescue assay: protection against thapsigargin (TG)-induced cell-death (ALAMARBLUE). It counts as cell-based. The conditions noted are these: compound at 20 μM, 2 hrs before thapsigargin (15 μM for HEK293 cells, 1 μM for N2a cells), 24 hrs; viability as % RFU compared to control; cell line not given; read-out: Cell Survival %. How it is done:
Protection against Thapsigargin (TG)-induced Cell-death. Human embryonic kidney (HEK293) cells were grown in Dulbecco's Modified Eagle's Medium (DMEM) with 10% FBS and 1% antibiotic antimycotic solution (ABAM). Mouse neuroblastoma (N2a) cells were grown in 1:1 DMEM:OPTI-MEM® with 5% FBS and 1% ABAM. All cells were grown in 10% CO2 in a humidified environment of the incubator. Cells grown in 96-well plates were exposed to a test compound (20 μM) for 2 hrs before addition of thapsigargin (15 μM for HEK293 cells and 1 μM for N2a cells) to induce ER stress. After incubation in cell-culture incubator for 24 hrs, ALAMARBLUE® regent (10% v/v) was added to the wells. Fluorescence reading was taken 2 hrs after the addition of the ALAMARBLUE® regent. Cell-viability was calculated as a percentage of relative fluorescence unit (RFU) compared to control. […] The biological results are summarized in Table 2, where each compound was tested at 20 μM and where A represents a viability greater than or equal to 50%, B represents a viability greather than 20% and less than 50%, and C represents a value from 10% to 20%.
A general note: Resazurin is reduced to fluorescent resorufin, in cell work by metabolically active cells.

In a further experiment the test system is Ob/ob mice. Put plainly: Effect of a SERCA agonist on the level of blood glucose. It counts as in vivo. The conditions noted are these: Mus musculus, ip, 96 h, 50 mg/kg i.p. once a day for 5 days, fasting glucose at baseline and 4 days after administration, read-out: Glucose level reduction. The method, then: Ob/ob mice (10 weeks old, n=7) were intraperitoneally (i.p.) injected with 100 μL of a solution containing 0 (vehicle) or 50 mg/kg of a test compound once a day for a total of 5 days. Fasting glucose was measured at baseline and 4 days after the administration of the test compound. Glucose levels were measured in blood samples drawn from the tail vein using a handheld glucose sensor. Compound effects on blood glucose are shown in Table 5 where A represents a 10-20% reduction in blood glucose, B represents a 21-30% reduction in blood glucose, and C represents a greather than 30% reduction in blood glucose levels.

T1 sequence (P16615 whole entry): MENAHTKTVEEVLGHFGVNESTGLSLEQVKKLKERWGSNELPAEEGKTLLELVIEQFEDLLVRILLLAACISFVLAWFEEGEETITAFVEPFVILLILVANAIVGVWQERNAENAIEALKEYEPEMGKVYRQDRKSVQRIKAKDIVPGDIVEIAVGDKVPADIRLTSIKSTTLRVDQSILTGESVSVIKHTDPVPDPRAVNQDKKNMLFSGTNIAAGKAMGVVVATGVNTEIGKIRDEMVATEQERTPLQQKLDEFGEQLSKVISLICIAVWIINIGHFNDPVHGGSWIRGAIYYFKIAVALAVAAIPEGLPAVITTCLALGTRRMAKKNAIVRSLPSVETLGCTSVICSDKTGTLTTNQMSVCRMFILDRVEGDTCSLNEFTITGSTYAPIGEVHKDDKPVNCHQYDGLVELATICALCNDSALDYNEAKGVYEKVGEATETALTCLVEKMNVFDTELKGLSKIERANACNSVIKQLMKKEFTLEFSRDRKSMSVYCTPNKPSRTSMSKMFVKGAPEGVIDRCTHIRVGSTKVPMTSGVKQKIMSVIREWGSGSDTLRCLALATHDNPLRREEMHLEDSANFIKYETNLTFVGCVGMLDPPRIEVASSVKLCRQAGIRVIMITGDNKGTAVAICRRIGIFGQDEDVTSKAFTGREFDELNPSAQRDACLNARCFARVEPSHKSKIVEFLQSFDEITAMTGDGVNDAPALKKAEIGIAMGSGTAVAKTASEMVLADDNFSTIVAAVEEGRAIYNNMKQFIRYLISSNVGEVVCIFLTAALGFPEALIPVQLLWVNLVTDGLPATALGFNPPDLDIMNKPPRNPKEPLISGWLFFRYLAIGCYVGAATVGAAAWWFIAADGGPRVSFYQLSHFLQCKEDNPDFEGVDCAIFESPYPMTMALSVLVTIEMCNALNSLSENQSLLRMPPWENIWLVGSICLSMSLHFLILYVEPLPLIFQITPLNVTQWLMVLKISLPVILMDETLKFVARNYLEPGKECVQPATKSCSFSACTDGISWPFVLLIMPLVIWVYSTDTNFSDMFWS

One may read the EC50 as the concentration needed to bring the measured effect to its halfway point. Turning to `CC(C)Oc1ccc(C(=O)Nc2cccc3nccnc23)cc1` [A1, 4-Isopropoxy-N-(quinoxalin-5-yl)benzamide], the viability at 7.5 µM with Human SH-SY5Y cells was at least 50%. The “SERCA Vmax Increase” value at SERCA was “A (A represents an increase in SERCA Vmax greater than or equal to 50%)”. Also, the EC50 in the experiment on CSM14.1 neuronal cells was 1 to 10 µM. In experiment [1], the viability at 20 µM is 20 to 50%. The inhibition in vivo at 50 mg/kg with Ob/ob mice fell in the range of 21 to 30%.

On to `O=C(Nc1cccc2nccnc12)c1cc(Br)cs1` [A2, 4-Bromo-N-(quinoxalin-5-yl)thiophene-2-carboxamide], for which the viability at 7.5 µM in the experiment on Human SH-SY5Y cells fell in the range of 10 to 20%. Besides, the “SERCA Vmax Increase” value at SERCA was “B (B represents a value greater than 10% and less than 50%)”. In the experiment on CSM14.1 neuronal cells, this compound registered an EC50 of 1 to 10 µM. In addition, in experiment [1], the viability at 20 µM lay in the range of 20 to 50%. Besides, the inhibition in vivo at 50 mg/kg with Ob/ob mice is 21 to 30%.

As for `O=C(Nc1cccc2nccnc12)c1ccc(Br)s1` [A3, 5-Bromo-N-(quinoxalin-5-yl)thiophene-2-carboxamide], in the experiment with Human SH-SY5Y cells, the viability at 7.5 µM fell in the range of 20 to 50%. For the same compound, the “SERCA Vmax Increase” value on SERCA is reported as “A (A represents an increase in SERCA Vmax greater than or equal to 50%)”. In the experiment on CSM14.1 neuronal cells, this compound returned a concentration giving a half-maximal response (EC50) of 10 to 20 µM. Also, the viability at 20 µM in experiment [1] lay within 10 to 20%. Also, the inhibition in vivo at 50 mg/kg in the experiment with Ob/ob mice lay within 10 to 20%.

In the case of `Cc1ccc(C(=O)Nc2cccc3nccnc23)s1` [A4, 5-Methyl-N-(quinoxalin-5-yl)thiophene-2-carboxamide], in the experiment on Human SH-SY5Y cells, the viability at 7.5 µM is at least 50%. On SERCA, the “SERCA Vmax Increase” value is “A (A represents an increase in SERCA Vmax greater than or equal to 50%)”. The same compound gave a concentration for a half-maximal effect (EC50) with CSM14.1 neuronal cells of 1 to 10 µM. In experiment [1], the viability at 20 µM was at least 50%. Moreover, the inhibition in vivo at 50 mg/kg with Ob/ob mice fell in the range of 10 to 20%.

In the case of `O=C(Nc1cccc2nccnc12)c1cccs1` [A5, N-(Quinoxalin-5-yl)thiophene-2-carboxamide], the viability at 7.5 µM with Human SH-SY5Y cells lay in the range of 20 to 50%. Further, the “SERCA Vmax Increase” value at SERCA is reported as “A (A represents an increase in SERCA Vmax greater than or equal to 50%)”. For the same compound, in the experiment with CSM14.1 neuronal cells, the EC50 lay in the range of 10 to 20 µM. The viability at 20 µM in experiment [1] was 10 to 20%. For the same compound, in the experiment with Ob/ob mice, the inhibition in vivo at 50 mg/kg was over 30%.

As to `O=C(Nc1cccc2nccnc12)c1cc2ccccc2s1` [A6, N-(Quinoxalin-5-yl)benzo[b]thiophene-2-carboxamide], the viability at 7.5 µM in the experiment on Human SH-SY5Y cells fell in the range of 20 to 50%. For the same compound, the “SERCA Vmax Increase” value on SERCA is “B (B represents a value greater than 10% and less than 50%)”. Besides, in the experiment on CSM14.1 neuronal cells, the concentration for a half-maximal effect (EC50) lay in the range of 1 to 10 µM. Besides, in experiment [1], the viability at 20 µM is 10 to 20%. In addition, in the experiment on Ob/ob mice, the inhibition in vivo at 50 mg/kg lay in the range of 10 to 20%.

With `O=C(Nc1cccc2nccnc12)c1ccc(Cl)cc1` [A7, 4-Chloro-N-(quinoxalin-5-yl)benzamide], in the experiment with Human SH-SY5Y cells, the viability at 7.5 µM fell in the range of 20 to 50%. Further, on SERCA, the “SERCA Vmax Increase” value is “B (B represents a value greater than 10% and less than 50%)”. Further, in the experiment with CSM14.1 neuronal cells, the EC50 is at most 1 µM. The viability at 20 µM in experiment [1] is at least 50%. Moreover, the inhibition in vivo at 50 mg/kg in the experiment with Ob/ob mice was in the range of 10 to 20%.

For the compound `CC(C)Oc1cccc(C(=O)Nc2cccc3nccnc23)c1` [A8, 3-Isopropoxy-N-(quinoxalin-5-yl)benzamide], the viability at 7.5 µM in the experiment with Human SH-SY5Y cells is 20 to 50%. On SERCA, the “SERCA Vmax Increase” value is “B (B represents a value greater than 10% and less than 50%)”. The compound further showed a concentration for a half-maximal effect (EC50) in the experiment on CSM14.1 neuronal cells of 10 to 20 µM. Besides, in experiment [1], the viability at 20 µM was 20 to 50%. The inhibition in vivo at 50 mg/kg in the experiment with Ob/ob mice is 21 to 30%.

As to `O=C(Nc1cccc2nccnc12)c1ccc(C(F)(F)F)cc1` [A9, N-(quinoxalin-5-yl)-4-(trifluoromethyl)benzamide], the viability at 7.5 µM with Human SH-SY5Y cells is 10 to 20%. Also, the “SERCA Vmax Increase” value at SERCA is given as “A (A represents an increase in SERCA Vmax greater than or equal to 50%)”. For the same compound, in the experiment with CSM14.1 neuronal cells, the concentration for a half-maximal effect (EC50) was at most 1 µM. Also, the viability at 20 µM in experiment [1] was in the range of 20 to 50%. For the same compound, the inhibition in vivo at 50 mg/kg in the experiment on Ob/ob mice fell in the range of 21 to 30%.

On to `O=C(Nc1cccc2nccnc12)c1cccc(F)c1` [A10, 3-fluoro-N-(quinoxalin-5-yl)benzamide], for which the viability at 7.5 µM with Human SH-SY5Y cells lay within 20 to 50%. The “SERCA Vmax Increase” value at SERCA is “A (A represents an increase in SERCA Vmax greater than or equal to 50%)”. The EC50 in the experiment with CSM14.1 neuronal cells was in the range of 1 to 10 µM. In experiment [1], the viability at 20 µM lay within 10 to 20%. In addition, the inhibition in vivo at 50 mg/kg in the experiment with Ob/ob mice was over 30%.
